From patent US5849735A, “Tricyclic benzazepine vasopressin antagonists” (American Cyanamid Company, priority 1995, dated 1998) come the findings set out here.

The structures appear in SMILES notation.

For test [1], the target named is T1, vasopressin V1 receptor (rat liver plasma membranes) (Rattus norvegicus, UniProt P30560).
T1 construct: Rat liver plasma membranes expressing the vasopressin V1 receptor subtypes; from tissue; host or cells: rat liver plasma membranes
The test can be described thus: Binding Assay to Rat Hepatic V1 Receptors. Particulars: 2 h; rat hepatic V1; at 10 μM. On the procedure: Binding Assay to Rat Hepatic V1 Receptors
Rat liver plasma membranes expressing the vasopressin V1 receptor subtypes are isolated by sucrose density gradient according to the method described by Lesko et al., (1973). These membranes are quickly suspended in 50.0 mM Tris.HCl buffer, pH 7.4, containing 0.2% bovine serum albumin (BSA) and 0.1 mM phenylmethylsulfonylfluoride (PMSF) and kept frozen at -70° C. until used in subsequent binding experiments. For binding experiments, the following is added to the wells of a ninety-six well format microtiter plate: […] of […] buffer containing 10.0 mM MgCl2, 0.2% heat inactivated BSA and a mixture of protease inhibitors: leupeptin, 1.0 mg %; aprotinin, 1.0 mg %; 1,10-phenanthroline,2.0 mg %; trypsin inhibitor, 10.0 mg % and 0.1 mM PMSF, 20.0 ml of [phenylalanyl-3,4,5, -^3 H] vasopressin (S.A. 45.1 Ci/mmole) […], and the reaction initiated by the addition of 80 ml of tissue membranes containing 20 mg of tissue protein. The plates are kept undisturbed on the bench top at room temperature for 120 min. to reach equilibrium. Non-specific samples are assayed in the presence of 0.1 mM of the unlabeled […] phenylalanylvasopressin, added in 20.0 ml volume.
For test compounds, these are solubilized in 50% dimethylsulfoxide (DMSO) and added in 20.0 ml volume to a final incubation volume of […]. Upon completion of binding, the content of each well is filtered off, using a Brandel® cell Harvester (Gaithersburg, Md.). The radioactivity trapped on the filter disk by the ligand-receptor complex is assessed by liquid scintillation counting in a Packard LS Counter, with an efficiency of 65% for tritium.

Test [2] deals with T2, vasopressin V2 receptor (rat kidney medullary) (Rattus norvegicus, UniProt Q00788).
T2 construct: Medullary tissues from rat kidneys are dissected out; from tissue; host or cells: rat kidney medulla membranes
As to the kind of experiment: Binding Assay to Rat Kidney Medullary V2 Receptors. The note with it: rat kidney V2; at 10 μM. On the procedure:
Binding Assay to Rat Kidney Medullary V2 Receptors
Medullary tissues from rat kidneys are dissected out, cut into small pieces and soaked in a […] sodium chloride solution containing 1.0 mM EDTA with many changes of the liquid phase, until the solution is clear of blood. […] The tissue is homogenized in a 0.25M sucrose solution containing 1.0 mM EDTA and 0.1 mM PMSF using a Potter-Elvehjem homogenizer with a teflon pestle. The homogenate is filtered through several layers (4 layers) of cheese cloth. The filtrate is rehomogenized using a dounce homogenizer, with a tight fitting pestle. The final homogenate is centrifuged at 1500×g for 15 min. The nuclear pellet is discarded and the supernatant fluid recentrifuged at 40,000×g for 30 min. The resulting pellet formed contains a dark inner part with the exterior, slightly pink. The pink outer part is suspended in a small amount of 50.0 mM Tris.HCl buffer, pH 7.4. The protein content is determined by the Lowry's method (Lowry et al., J. Biol. Chem., 1953). The membrane suspension is stored at -70° C., in 50.0 mM Tris.HCl, containing 0.2% inactivated BSA and 0.1 mM PMSF in aliquots of 1.0 ml containing 10.0 mg protein per ml of suspension until sue in subsequent binding experiments.
For binding experiments, the following is added in ml volume to wells of a 96 well format of a microtiter plate: 100.0 ml of 100.0 mM Tris.HCl buffer containing 0.2% heat inactivated BSA, 10.0 mM MgCL2 and a mixture of protease inhibitors: leupeptin, 1.0 mg %; aprotinin, 1.0 mg % 1,10-phenanthroline, 2.0 mg %; trypsin inhibitor, and 0.1 mM PMSF, 20.0 ml of [^3 H] Arginine^8, vasopressin (S.A. 75.0 Ci/mmole) at 0.8 nM and the reaction initiated by the addition of 80.0 ml of tissue membranes (200.0 mg tissue protein). The plates are left undisturbed on the bench top for 120 minutes to reach equilibrium. Non-specific binding is assessed in the presence of 1.0 mM of unlabeled ligand, added in 20 ml volume. For test compounds, these are solubilized in 50% dimethylsulfoxide (DMSO) and added in 20.0 ml volume to a final incubation volume of […]. Upon completion of binding, the content of each well is filtered off, using a Brandel® cell Harvester (Gaithersburg, Md.). The radioactivity trapped on the filter disk by the ligand-receptor complex is assessed by liquid scintillation counting in a Parkard LS Counter, with an efficiency of 65% for tritium.

Test [3] concerns the target T3, oxytocin receptor (rat uteri) (Rattus norvegicus, UniProt P70536).
T3 construct: The uteri are dissected out, cleaned of fat and connective tissues; from tissue; host or cells: uteri of diethylstilbestrol-treated female Sprague-Dawley rats
T3 sequence (P70536 1-388): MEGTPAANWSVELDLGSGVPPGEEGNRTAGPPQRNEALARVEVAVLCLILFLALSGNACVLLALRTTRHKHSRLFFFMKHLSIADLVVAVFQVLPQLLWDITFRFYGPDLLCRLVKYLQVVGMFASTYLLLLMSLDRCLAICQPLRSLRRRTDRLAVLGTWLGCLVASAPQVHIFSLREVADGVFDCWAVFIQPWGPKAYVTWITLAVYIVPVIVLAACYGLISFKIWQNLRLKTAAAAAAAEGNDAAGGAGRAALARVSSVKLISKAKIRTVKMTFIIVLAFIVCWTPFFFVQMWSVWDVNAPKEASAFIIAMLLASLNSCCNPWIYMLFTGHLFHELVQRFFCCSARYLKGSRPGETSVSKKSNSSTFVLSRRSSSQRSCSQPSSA
The test can be described thus: Oxytocin Receptor Binding. Also on record: species or system rat (Sprague-Dawley). The note with it: dose 1 μM. As for the experimental part:
Oxytocin Receptor Binding
Female Sprague-Dawley rats weighing approximately 200-250 g are injected intramuscularly (i.m.) with 0.3 mg/kg of body weight of diethylstilbestrol (DES). The rats are sacrificed 18 hours later under pentobarbital anesthesia. The uteri are dissected out, cleaned of fat and connective tissues and rinsed in 50 ml of normal saline. The tissue pooled from six rats is homogenized in 50 ml of […] Tris. HCl, containing 0.5 mM dithiothreitol and 1.0 mM EDTA, adjusted to pH 7.4, using a polytron at setting 6 with three passes of 10 sec each. The homogenate is passed through two (2) layers of cheesecloth and the filtrate centrifuged at 1000×g for 10 minutes. The clear supernatant is removed and recentrifuged at 165,000×g for 30 minutes. The resulting pellet containing the oxytocin receptors is resuspended in 50.0 mM Tris.HCl containing 5.0 mM MgCl2 at pH 7.4, to give a protein concentration of 2.5 mg/ml of tissue suspension. This preparation is used in subsequent binding assays with [^3 H]oxytocin.
Binding of 3,5-[^3 H]Oxytocin ([^3 H]OT) to its receptors is done in microtiter plates using [^3 H]OT, at various concentrations, in an assay buffer of 50.0 mM Tris.HCI, pH 7.4 and containing 5.0 mM MgCl2, and a mixture of protease inhibitors: BSA, 0.1 mg; aprotinin, 1.0 mg; 1,10-phenanthroline, 2.0 mg; […], 10.0 mg; and PMSF, 0.3 mg per 100 ml of buffer solution. Non-specific binding is determined in the presence of 1.0 uM unlabeled OT. The binding reaction is terminated after 60 minutes, at 22° C., by rapid filtration through glass fiber filters using a Brandel® cell harvester (Biomedical Research and Development Laboratories, Inc., Gaithersburg, Md.). Competition experiments are conducted at equilibrium using 1.0 nM [^3 H]OT and varying the concentration of the displacing agents. The concentrations of agent displacing 50% of [^3 H]OT at its sites (IC50) are calculated by a computer assisted LUNDON-2 program (LUNDON SOFTWARE INC., Ohio, USA).

T2 sequence (Q00788 whole entry): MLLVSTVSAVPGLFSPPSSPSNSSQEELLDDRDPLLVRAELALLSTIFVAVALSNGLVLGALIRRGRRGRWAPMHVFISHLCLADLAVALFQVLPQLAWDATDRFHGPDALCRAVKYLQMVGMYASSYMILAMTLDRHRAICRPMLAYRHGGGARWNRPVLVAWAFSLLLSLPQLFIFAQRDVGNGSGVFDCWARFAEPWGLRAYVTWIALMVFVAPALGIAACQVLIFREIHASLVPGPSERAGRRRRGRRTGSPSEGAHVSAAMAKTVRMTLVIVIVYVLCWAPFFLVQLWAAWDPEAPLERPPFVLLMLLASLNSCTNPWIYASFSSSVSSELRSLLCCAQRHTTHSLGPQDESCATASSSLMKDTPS
T1 sequence (P30560 whole entry): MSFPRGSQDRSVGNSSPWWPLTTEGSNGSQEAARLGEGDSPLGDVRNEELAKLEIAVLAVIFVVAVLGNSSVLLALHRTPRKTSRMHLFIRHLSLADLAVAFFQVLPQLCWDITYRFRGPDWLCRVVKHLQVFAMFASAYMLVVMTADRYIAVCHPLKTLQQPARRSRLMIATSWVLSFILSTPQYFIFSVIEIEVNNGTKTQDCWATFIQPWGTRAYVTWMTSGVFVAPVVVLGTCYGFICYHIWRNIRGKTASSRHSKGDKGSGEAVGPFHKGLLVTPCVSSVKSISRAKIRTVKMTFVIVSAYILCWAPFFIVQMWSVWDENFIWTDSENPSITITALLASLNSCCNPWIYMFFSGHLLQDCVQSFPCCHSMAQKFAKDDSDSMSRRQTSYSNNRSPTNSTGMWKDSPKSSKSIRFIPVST

Take `O=C(c1ccccc1)c1ccc(C(=O)N2Cc3ccccc3CCc3ccccc32)cc1` [Example 33, 5-(4-Benzoylbenzoyl)5,6,11,12-tetrahydrodibenz[b,f]azocine]: the values for the inhibition at 10 µM in test [1] and in test [2] were 10% and 16%, respectively. For the same compound, the inhibition at 1 µM in test [3] turned out to be 37%.

In general, inhibition refers to the percentage by which the read-out fell short of the control. Low values mean a weak effect, high ones a strong effect.
